This experiment concerns the target T1, human full-length MKNK1 (Homo sapiens, UniProt Q9BUB5, T385D).
T1 construct: GST (N); purchased Carna Biosciences 02-145; host or cells: insect cells (baculovirus expression system)
Nature of the experiment: MKNK1 kinase high ATP assay (TR-FRET). To be noted: for IC50: Table 1, MKNK1 kinase high ATP assay, 2 mM ATP, read-out: MKNK1 IC50; for Activity-Ratio MKNK1: Table 2, ratio of the IC50-value of an R-enantiomer and its corresponding S-enantiomer. Type of experiment: biochemical. The protocol:
MKNK1 Kinase High ATP Assay
MKNK1-inhibitory activity at high ATP of compounds of the present invention after their preincubation with MKNK1 was quantified employing the TR-FRET-based MKNK1 high ATP assay as described in the following paragraphs.
As substrate for the kinase reaction the biotinylated peptide biotin-Ahx-[…] (C-terminus in amide form) was used, which can be purchased e.g. from the company Biosyntan (Berlin-Buch, Germany).
For the assay 50 nL of a 100 fold concentrated solution of the test compound in DMSO was pipetted into a black low volume 384 well microtiter plate (Greiner Bio-One, Frickenhausen, Germany), 2 μL of a solution of MKNK1 in aqueous assay buffer [50 mM HEPES pH 7.5, 5 mM MgCl2, 1.0 mM dithiothreitol, 0.005% (v/v) Nonidet-P40 (Sigma)] was added and the mixture was incubated for 15 min at 22° C. to allow pre-binding of the test compounds to the enzyme before the start of the kinase reaction. Then the kinase reaction was started by the addition of 3 μL of a solution of adenosine-tri-phosphate (ATP, 3.3 mM=>final conc. in the 5 μL assay volume is 2 mM) and substrate (0.1 μM=>final conc. in the 5 μL assay volume is 0.06 μM) in assay buffer and the resulting mixture was incubated for a reaction time of 30 min at 22° C. The concentration of MKNK1 was adjusted depending of the activity of the enzyme lot and was chosen appropriate to have the assay in the linear range, typical concentrations were in the range of 0.003 μg/mL. The reaction was stopped by the addition of 5 μL of a solution of TR-FRET detection reagents (5 nM streptavidine-XL665 [Cisbio Bioassays, Codolet, France] and 1 nM anti-ribosomal protein S6 (pSer236)-antibody from Invitrogen [#44921G] and 1 nM LANCE EU-W1024 labeled ProteinG [Perkin-Elmer, product no. AD0071]) in an aqueous EDTA-solution (100 mM EDTA, 0.1% (w/v) bovine serum albumin in 50 mM HEPES pH 7.5).
The resulting mixture was incubated for 1 h at 22° C. to allow the formation of complex between the phosphorylated biotinylated peptide and the detection reagents. Subsequently the amount of phosphorylated substrate was evaluated by measurement of the resonance energy transfer from the Eu-chelate to the streptavidine-XL. Therefore, the fluorescence emissions at 620 nm and 665 nm after excitation at 350 nm were measured in a TR-FRET reader, e.g. a Rubystar (BMG Labtechnologies, Offenburg, Germany) or a Viewlux (Perkin-Elmer). The ratio of the emissions at 665 nm and at 622 nm was taken as the measure for the amount of phosphorylated substrate.
In general terms: In TR-FRET formats the signal depends on donor and acceptor labels being close together.

A word on the IC50: it is the midpoint of a concentration-inhibition curve.

T1 sequence (Q9BUB5 1-424 isoform Q9BUB5-2 T344D): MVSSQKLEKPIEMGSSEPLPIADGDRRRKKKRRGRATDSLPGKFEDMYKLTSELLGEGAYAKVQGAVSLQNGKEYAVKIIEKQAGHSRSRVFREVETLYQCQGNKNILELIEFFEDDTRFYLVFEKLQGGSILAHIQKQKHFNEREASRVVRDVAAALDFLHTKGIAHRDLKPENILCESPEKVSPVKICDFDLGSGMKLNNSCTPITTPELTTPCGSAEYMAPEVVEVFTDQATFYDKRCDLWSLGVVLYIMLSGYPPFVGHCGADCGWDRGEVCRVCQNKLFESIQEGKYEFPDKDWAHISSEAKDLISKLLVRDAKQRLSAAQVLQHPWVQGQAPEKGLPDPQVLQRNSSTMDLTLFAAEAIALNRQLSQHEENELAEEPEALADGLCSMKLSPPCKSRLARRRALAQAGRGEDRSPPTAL

On to `COc1cc2[nH]ncc2cc1Nc1ncnc2sc3c(c12)CC[C@H](C(=O)N1CCCC(F)C1)C3` (mixture of isomers) [Example 205, [(3RS)-3-fluoropiperidin-1-yl]{(7S)-4-[(6-methoxy-1H-indazol-5-yl)amino]-5,6,7,8-tetrahydro[1]benzothieno[2,3-d]pyrimidin-7-yl}methanone], for which the IC50 was 0.5 nM.

`CN(C)C(=O)[C@H]1CCc2c(sc3ncnc(Nc4ccc5[nH]ncc5c4)c23)C1` [Example 1, (7S)-4-(1H-Indazol-5-ylamino)-N,N-dimethyl-5,6,7,8-tetrahydro[1]benzothieno[2,3-d]pyrimidine-7-carboxamide]: the IC50 came to 14.3 nM and the “Activity-Ratio MKNK1” value stood at 8.3.

On to `CN(C)C(=O)[C@@H]1CCc2c(sc3ncnc(Nc4ccc5[nH]ncc5c4)c23)C1` [Example 2, (7R)-4-(1H-Indazol-5-ylamino)-N,N-dimethyl-5,6,7,8-tetrahydro[1]benzothieno[2,3-d]pyrimidine-7-carboxamide], for which the 50% inhibitory concentration (IC50) stood at 118 nM.

On to `O=C([C@H]1CCc2c(sc3ncnc(Nc4ccc5[nH]ncc5c4)c23)C1)N1CCC1` [Example 3, Azetidin-1-yl[(7S)-4-(1H-indazol-5-ylamino)-5,6,7,8-tetrahydro[1]benzothieno[2,3-d]pyrimidin-7-yl]methanone], for which the IC50 was 11 nM.

With `CCN(C)C(=O)[C@H]1CCc2c(sc3ncnc(Nc4ccc5[nH]ncc5c4)c23)C1` [Example 4, (7S)—N-Ethyl-4-(1H-indazol-5-ylamino)-N-methyl-5,6,7,8-tetrahydro[1]benzothieno[2,3-d]pyrimidine-7-carboxamide], the IC50 was found to be 3.5 nM.

With `CN(CC(F)(F)F)C(=O)[C@H]1CCc2c(sc3ncnc(Nc4ccc5[nH]ncc5c4)c23)C1` [Example 5, (7S)-4-(1H-Indazol-5-ylamino)-N-methyl-N-(2,2,2-trifluoroethyl)-5,6,7,8-tetrahydro[1]benzothieno[2,3-d]pyrimidine-7-carboxamide], the IC50 amounted to 18.3 nM.

Regarding `CN(CCC(F)(F)F)C(=O)[C@H]1CCc2c(sc3ncnc(Nc4ccc5[nH]ncc5c4)c23)C1` [Example 6, (7S)-4-(1H-Indazol-5-ylamino)-N-methyl-N-(3,3,3-trifluoropropyl)-5,6,7,8-tetrahydro[1]benzothieno[2,3-d]pyrimidine-7-carboxamide], the IC50 was found to be 11 nM.

As for `CC(C)N(C)C(=O)[C@H]1CCc2c(sc3ncnc(Nc4ccc5[nH]ncc5c4)c23)C1` [Example 7, (7S)-4-(1H-Indazol-5-ylamino)-N-methyl-N-(propan-2-yl)-5,6,7,8-tetrahydro[1]benzothieno[2,3-d]pyrimidine-7-carboxamide], the IC50 was determined as 6 nM.

As for `CCN(C(=O)[C@H]1CCc2c(sc3ncnc(Nc4ccc5[nH]ncc5c4)c23)C1)C(C)C` [Example 8, (7S)—N-Ethyl-4-(1H-indazol-5-ylamino)-N-(propan-2-yl)-5,6,7,8-tetrahydro[1]benzothieno[2,3-d]pyrimidine-7-carboxamide], the IC50 came out at 8.3 nM.

Regarding `O=C([C@H]1CCc2c(sc3ncnc(Nc4ccc5[nH]ncc5c4)c23)C1)N1CCOCC1` [Example 9, [(7S)-4-(1H-Indazol-5-ylamino)-5,6,7,8-tetrahydro[1]benzothieno[2,3-d]pyrimidin-7-yl](morpholin-4-yl)methanone], the IC50 stood at 25.6 nM.

With `O=C([C@H]1CCc2c(sc3ncnc(Nc4ccc5[nH]ncc5c4)c23)C1)N1C[C@@H]2C[C@H]1CO2` [Example 10, [(7S)-4-(1H-Indazol-5-ylamino)-5,6,7,8-tetrahydro[1]benzothieno[2,3-d]pyrimidin-7-yl][(1S,4S)-2-oxa-5-azabicyclo[2.2.1]hept-5-yl]methanone], the IC50 came to 11.1 nM.

Consider `O=C([C@H]1CCc2c(sc3ncnc(Nc4ccc5[nH]ncc5c4)c23)C1)N1C[C@H]2C[C@@H]1CO2` [Example 11, [(7S)-4-(1H-Indazol-5-ylamino)-5,6,7,8-tetrahydro[I]benzothieno[2,3-d]pyrimidin-7-yl][(1R,4R)-2-oxa-5-azabicyclo[2.2.1]hept-5-yl]methanone], for which the IC50 amounted to 4 nM.

As for `O=C([C@H]1CCc2c(sc3ncnc(Nc4ccc5[nH]ncc5c4)c23)C1)N1CC2(COC2)C1` [Example 12, [(7S)-4-(1H-Indazol-5-ylamino)-5,6,7,8-tetrahydro[1]benzothieno[2,3-d]pyrimidin-7-yl](2-oxa-6-azaspiro[3.3]hept-6-yl)methanone], the IC50 was 22.7 nM.

Consider `COCCN(C)C(=O)[C@H]1CCc2c(sc3ncnc(Nc4ccc5[nH]ncc5c4)c23)C1` [Example 13, (7S)-4-(1H-Indazol-5-ylamino)-N-(2-methoxyethyl)-N-methyl-5,6,7,8-tetrahydro[1]benzothieno[2,3-d]pyrimidine-7-carboxamide], for which the IC50 came out at 3.2 nM.

In the case of `CN1CCN(C(=O)[C@H]2CCc3c(sc4ncnc(Nc5ccc6[nH]ncc6c5)c34)C2)CC1` [Example 14, [(7S)-4-(1H-Indazol-5-ylamino)-5,6,7,8-tetrahydro[I]benzothieno[2,3-d]pyrimidin-7-yl](4-methylpiperazin-1-yl)methanone], the IC50 stood at 5.5 nM and the “Activity-Ratio MKNK1” value was determined as 16.1.

Consider `CN1CCN(C(=O)[C@@H]2CCc3c(sc4ncnc(Nc5ccc6[nH]ncc6c5)c34)C2)CC1` [Example 15, [(7R)-4-(1H-Indazol-5-ylamino)-5,6,7,8-tetrahydro[1]benzothieno[2,3-d]pyrimidin-7-yl](4-methylpiperazin-1-yl)methanone], for which the IC50 turned out to be 88.5 nM.

For the molecule `COCCN(CCOC)C(=O)[C@H]1CCc2c(sc3ncnc(Nc4ccc5[nH]ncc5c4)c23)C1` [Example 16, (7S)-4-(1H-Indazol-5-ylamino)-N,N-bis(2-methoxyethyl)-5,6,7,8-tetrahydro[1]benzothieno[2,3-d]pyrimidine-7-carboxamide], the IC50 stood at 2.4 nM.

In the case of `CC1(O)CN(C(=O)[C@H]2CCc3c(sc4ncnc(Nc5ccc6[nH]ncc6c5)c34)C2)C1` [Example 17, (3-Hydroxy-3-methylazetidin-1-yl)[(7S)-4-(1H-indazol-5-ylamino)-5,6,7,8-tetrahydro[1]benzothieno[2,3-d]pyrimidin-7-yl]methanone], the IC50 is 9.4 nM.

Take `CN(CC(C)(C)O)C(=O)[C@H]1CCc2c(sc3ncnc(Nc4ccc5[nH]ncc5c4)c23)C1` [Example 18, (7S)—N-(2-Hydroxy-2-methylpropyl)-4-(1H-indazol-5-ylamino)-N-methyl-5,6,7,8-tetrahydro[1]benzothieno[2,3-d]pyrimidine-7-carboxamide]: the concentration for half-maximal inhibition (IC50) was determined as 3.9 nM.

Consider `CCN(CCO)C(=O)[C@H]1CCc2c(sc3ncnc(Nc4ccc5[nH]ncc5c4)c23)C1` [Example 19, (7S)—N-Ethyl-N-(2-hydroxyethyl)-4-(1H-indazol-5-ylamino)-5,6,7,8-tetrahydro[1]benzothieno[2,3-d]pyrimidine-7-carboxamide], for which the IC50 amounted to 2.5 nM.

For the molecule `COc1cc2[nH]ncc2cc1Nc1ncnc2sc3c(c12)CC[C@H](C(=O)N(C)C)C3` [Example 20, (7S)-4-[(6-Methoxy-1H-indazol-5-yl)amino]-N,N-dimethyl-5,6,7,8-tetrahydro[1]benzothieno[2,3-d]pyrimidine-7-carboxamide], the IC50 came out at 1 nM.

With `COc1cc2[nH]ncc2cc1Nc1ncnc2sc3c(c12)CC[C@H](C(=O)N1CCC1)C3` [Example 21, Azetidin-1-yl{(7S)-4-[(6-methoxy-1H-indazol-5-yl)amino]-5,6,7,8-tetrahydro[1]benzothieno[2,3-d]pyrimidin-7-yl}methanone], the IC50 came out at 0.4 nM and the “Activity-Ratio MKNK1” value worked out at 53.1.

As for `COc1cc2[nH]ncc2cc1Nc1ncnc2sc3c(c12)CC[C@@H](C(=O)N1CCC1)C3` [Example 22, Azetidin-1-yl{(7R)-4-[(6-methoxy-1H-indazol-5-yl)amino]-5,6,7,8-tetrahydro[1]benzothieno[2,3-d]pyrimidin-7-yl}methanone], the IC50 stood at 21.4 nM.

On to `COc1cc2[nH]ncc2cc1Nc1ncnc2sc3c(c12)CC[C@H](C(=O)N1CCCC1)C3` [Example 23, {(7S)-4-[(6-Methoxy-1H-indazol-5-yl)amino]-5,6,7,8-tetrahydro[1]benzothieno[2,3-d]pyrimidin-7-yl}(pyrrolidin-1-yl)methanone], for which the IC50 was found to be 0.5 nM.

The values are drawn from patent US20160297833A1, “THIENOPYRIMIDINES AS MKNK1 AND MKNK2 INHIBITORS” (BAYER PHARMA AKTIENGESELLSCHAFT, priority 2013, published 2016).
